Experimental data from patent US5641520A, “Halogen compositions for water treatment” (priority 1995, dated 1997).

Assay: Water solubility of solid halogenated hydantoins and halogen dissolved in a saturated solution
Assay type: physicochemical
Conditions: Table II; for Saturated Solution, amount of halogen dissolved: saturated solution in water

Structure (SMILES)	Saturated Solution, amount of halogen dissolved [mg/L as Cl2]	Solubility (water) [%]
CC1(C)C(=O)N(Cl)C(=O)N1Br [Bromo-chlorodimethylhydantoin, bromochlorodimethylhydantoin]	825	0.15
CC1(C)C(=O)N(Br)C(=O)N1Br [Dibromodimethylhydantion, 1,3-dibromo-5,5-dimethylhydantoin]	542	
